One data set has as its system subject. The data set is described as follows: Single subject with obstructive sleep apnoea, oral maintenance treatment. The data set is classed as in vivo, human. The method, then:
A subject, height 178 cm and weighing 90 kilograms having had persistent awakening episodes of obstructive sleep apnoea (manifested by nocturnal choking) had been treated for several years with AGN 2979 hydrochloride, initially at a daily oral dose level of 120 mg and subsequently at a single oral maintenance dose of 120 mg every 4 days. […] The patient also reports that previous regular bouts of seasickness have been not recurred since treatment with AGN 2979 bisulphate.

In another data set the test system is tryptophan hydroxylase. The settings on record: no method or data given; cited from earlier work.
A short description of data set [1]: Body weights, behaviour and withdrawal signs in the CMS study. The format is in vivo, rat. The settings on record: for effect of chronic treatment on body weights: 5 weeks, imipramine 10 mg/kg i.p., AGN 2979 bisulphate 1, 4, 16 mg/kg p.o.; for signs of withdrawal after cessation of treatment: stressed or control animals, one week after cessation. As for the experimental part: (§1) Male Wistar rats were brought into the laboratory 2 months before the start of the experiment, at which time they weighed approx. 300 g. Except as described below, all animals were singly housed, with food and water freely available, and maintained on a 12-hour light/dark. The animals were first trained to consume a 1% sucrose solution. Training consisted of nine 1-hour baseline tests in which sucrose was presented in pre-weighed bottles, in the home cage, and, following 14 hours food and water deprivation; the sucrose intake was measured by weighing the pre-weighed bottles at the end of the test. Subsequently, sucrose consumption was monitored, under similar conditions, at weekly intervals throughout the whole experiment.
(§2) On the basis of their sucrose intakes in the final baseline test, the animals were divided into two matched groups. One group of animals was subjected to a chronic mild stress (“CMS”) procedure for a period of 9 consecutive weeks. Each week of stress regime consisted of: two periods of food or water deprivation, two periods of 45 degree cage tilt, two periods of intermittent illumination (lights on and off every 2 hours), two periods of soiled cage (250 ml water in sawdust bedding), two periods of paired housing, two periods of low intensity stroboscopic illumination, and two periods of no stress. All stressors were of 10–14 hours duration and were applied individually and continuously, day and night. Control animals were housed in a separate room and had no contact with the stressed animals. They were deprived of food and water for the 14 hours preceding each sucrose test, but otherwise food and water were freely available in the home cage. […] After five weeks, all treatments were terminated and after one week of withdrawal a final sucrose test was carried out. Stress was continued throughout the period of treatment and withdrawal.

Data set [2] can be described thus: Effect of AGN 2979 bisulphate on rat weight (0.36% in diet). The format is in vivo, Male Spraque-Dawley rats. To be noted: after initial period of 3 or 4 days, about 230 mg/kg. As for the experimental part: 4 Male Spraque-Dawley rats were fed with their standard laboratory diet to which had been added 0.36% AGN 2979 bisulphate for a period of 9 days and their weight monitored on a daily basis and compared with 2 control rats receiving the standard laboratory diet without the bisulphate. For a rat weighing 360 g and consuming 23 g of the diet, the amount of AGN 2979 bisulphate consumed was about 230 mg/kg. The results are shown in Table 1 below, in which the bisulphate is identified as “AGN 2979 BS”. […] In particular, the test rats lost or merely maintained their body weight. The weight gains after an initial 3 day period for the two control rats and for test rats 3 and 6 are shown graphically in FIG. 1 and the weight gains for all 6 rats after an initial 4 day period are shown in FIG. 2.

Data set [3] deals with Male Wistar rats. The experiment in a line: Chronic mild stress (CMS) model, consumption of 1% sucrose solution. The format is in vivo, rat. The settings on record: for consumption of sucrose solution one week after withdrawal from treatment: all drug-treated groups, control and stressed, stress continued; for consumption of sucrose solution in control animals / sucrose intake in stressed animals (treatment effect): 5 weeks. The method, then: as §1, §2
Chronic mild stress causes a gradual decrease in the consumption of 1% sucrose solution. In the final baseline test, all animals drank approximately 12 g of sucrose solution. Following initial three weeks of stress, intakes remained at the same level in control animals but fell to 7.5 (±0.3) g in stressed animals. Such a difference between control and stressed animals treated with vehicle, persisted at similar level for the remainder of the experiment [Group effect: F(1,98)=67.256; P<0.001].

The conditions of data set [4]: cited from earlier work.
The next data set deals with human patients. To be noted: cited from earlier work; for treatment of anxiety and depression: about 4 mg/kg/day (200–400 mg/day for human patients).
The test system of data set [5] is Male Wistar rats. The settings on record: earlier studies, cited from earlier work.
The mark [6] stands for this setting: single oral maintenance dose of 65 mg every two days, one subject.
[7] abbreviates: stressed animals, 4 mg/kg p.o. daily.
Where [8] appears, read: stressed animals, imipramine 10 mg/kg i.p. daily.

Structures can show the parent of a compound that is named as a salt. Where two headings read alike, the source gives them in different places.

As to `COc1cccc(C2(CCCN(C)C)C(=O)NC(=O)CC2(C)C)c1` (stereo not shown) [AGN 2979 bisulphate, 3(3-methoxyphenyl)-3-(3-dimethylaminopropyl)-4,4-dimethyl-piperidine-2,6-dione bisulphate], the “nocturnal choking after suspension of administration” value in the data set on subject (administration suspended, one subject) is given as “returned after three weeks”. In addition, the bouts of seasickness entry with subject (patient report, since treatment) is listed as “not recurred”. Moreover, in the data set with subject (setting [6]), the “awakening episodes of obstructive sleep apnoea” value is on record as “continued absence of awakening episodes” and the side effects result was “no side effects”. Besides, the “activation of tryptophan hydroxylase by metabolic inhibitors (guanidine, sodium cyanide)” value in the data set with tryptophan hydroxylase is listed as “blocked”. For the same molecule, the behavioural impairments result in data set [1] (16 mg/kg p.o., control and stressed animals, disappeared at end of third week) was “sedation, hypoactivity (but not catalepsy) and hyporeactivity to handling and drug injections”. The “effect of chronic treatment on body weights” value in data set [1] (control and stressed animals) is “no significant effect on body weights”. Besides, in data set [1], the “signs of withdrawal after cessation of treatment” value was “no signs of withdrawal were observed”. The “weight gain of test rats versus control rats” value in data set [2] is “the same as that of the control rats”. Besides, the “consumption of sucrose solution one week after withdrawal from treatment” value with Male Wistar rats [3] was “comparable to that observed in Week 5 of treatment”. For the same molecule, the “consumption of sucrose solution in control animals” value in the data set on Male Wistar rats [3] (any of three doses 1, 4 and 16 mg/kg p.o. daily) is on record as “not changed”. Also, the “activity against stress-induced deficit in sucrose consumption” value (“activity against stress-induced deficit” below) with Male Wistar rats [3] (stressed animals, 1 mg/kg p.o. daily) is recorded as “ineffective”. Also, in the data set on Male Wistar rats [3] (setting [7]), the “activity against stress-induced deficit” value is “active”, the “onset of significant increase of sucrose intake” value is on record as “within the first week of treatment” and the “sucrose solution drunk at end of treatment (Week 5) versus vehicle-treated controls” value is on record as “comparable to that of vehicle-treated controls”. In the data set with Male Wistar rats [3] (stressed animals, 16 mg/kg p.o. daily), the “activity against stress-induced deficit” value is listed as “ineffective”. The “sucrose intake in stressed animals (treatment effect)” value in the data set with Male Wistar rats [3] (stressed animals, 1, 4 and 16 mg/kg p.o. daily, overall) is listed as “gradual increase of sucrose intake”.

In the case of `COc1cccc(C2(CCCN(C)C)C(=O)NC(=O)CC2(C)C)c1` (stereo not shown) [AGN 2979 hydrochloride, 3(3-methoxyphenyl)-3-(3-dimethylaminopropyl)-4,4-dimethylpiperidine-2,6-dione], in data set [4] (200 mg/kg/day p.o., rats, 1 year, not detected by routine transaminase determinations), the post-mortem examination finding result is “hepatocyte changes”. The weight loss in data set [4] (200 mg/kg/day p.o., rats, over the 1-year period) was 40%. Moreover, the “weight of test rats compared with control rats” value in data set [4] (200 mg/kg, previous experiments) was “continuing weight disparity (loss)”. In addition, in the data set with human patients (1 mg b.i.d. (about 30 μg/kg/day), clinical study by Cutler et al), the “anxiolytic properties at FDA permitted dose” value is listed as “only marginally effective anxiolytic properties”. Also, the “treatment of anxiety and depression” value in the data set on human patients was “effective in alleviating depression”; in the data set with human patients (listed as hydrochloride salt of AGN 2979) it was “effective”. Further, in the data set with human patients (previous clinical observations), the “adverse effects following discontinuation of chronic administration” value was “does not cause any adverse effects following discontinuation”.

For the molecule `CN(C)CCC=C1c2ccccc2CCc2ccccc21` [amitriptyline], the “efficacy against CMS-induced anhedonia when doses increased above threshold active ones” value in the data set with Male Wistar rats [5] is “not more effective”.

Take `O=C1CC2(CCCC2)CC(=O)N1CCCCN1CCN(c2ncccn2)CC1` [buspirone]: the “efficacy against CMS-induced anhedonia when doses increased above threshold active ones” value in the data set with Male Wistar rats [5] is “not more effective”.

Consider `CN(C)CCCN1c2ccccc2CCc2ccccc21` [imipramine], for which the “effects in CMS model at higher dose (magnitude and time-course)” value in the data set on Male Wistar rats [5] (imipramine 20 mg/kg per day) was “caused similar effects”. For the same molecule, the “effect of chronic treatment on body weights” value in data set [1] (control and stressed animals) is “no significant effect on body weights”. For the same molecule, the “signs of withdrawal after cessation of treatment” value in data set [1] is reported as “no signs of withdrawal were observed”. Besides, the “consumption of sucrose solution one week after withdrawal from treatment” value in the data set on Male Wistar rats [3] is on record as “comparable to that observed in Week 5 of treatment”. In addition, the “consumption of sucrose solution in control animals” value in the data set with Male Wistar rats [3] (imipramine 10 mg/kg i.p. daily) is on record as “not changed”. Further, in the data set with Male Wistar rats [3] (setting [8]), the “onset of significant increase of sucrose intake” value is recorded as “after three weeks of treatment”; the “sucrose intake after five weeks of treatment versus vehicle-treated control animals” value is “no significant differences between drug-treated stressed and vehicle-treated control animals”; the “sucrose intake in stressed animals (treatment effect)” value is “gradual increase of sucrose intake”.

The record behind these values is patent US7189742B2, “Piperidin-2,6-dione bisulphate salts and their use for the treatment of stress related affective disorders” (Prestwick Pharmaceuticals, Inc., priority 2001, dated 2007).
